Results from US11225480B2, “Malic enzyme inhibitors” (SUN PHARMA ADVANCED RESEARCH COMPANY LTD, priority 2019, dated 2022).

Legend:
Type in all cases: biochemical
human ME2 enzyme = human ME2 enzyme (Homo sapiens, UniProt P23368); assay: ME2 inhibition assay (diaphorase/resazurin coupled fluorescence); settings: 10 μM compound concentration; read-out: Malic Enzyme 2 % inhibition (10 μM)
Outline: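 Human ME2 (10 μL of 60 nM) was preincubated 5 min at room temperature with compound (10 μM) in 50 mM Tris-HCl pH 7.5, 10 mM MnCl2, 7 mM L-malate, 50 μM resazurin and 0.025 mg/ml diaphorase. The reaction was started with 10 μL of 2 mM β-NAD+ and run 2 hours at room temperature. Resorufin fluorescence (ex 540/em 600 nm) was normalized to enzyme-only (100%) and no-enzyme (0%) controls as % activity.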

human ME3 enzyme = target: T1, human ME3 enzyme (Homo sapiens, UniProt Q16798); assay: ME3 inhibition assay (diaphorase/resazurin coupled fluorescence); settings: 10 μM compound concentration; read-out: Malic Enzyme 3 % inhibition (10 μM)
T1 sequence (Q16798 1-604): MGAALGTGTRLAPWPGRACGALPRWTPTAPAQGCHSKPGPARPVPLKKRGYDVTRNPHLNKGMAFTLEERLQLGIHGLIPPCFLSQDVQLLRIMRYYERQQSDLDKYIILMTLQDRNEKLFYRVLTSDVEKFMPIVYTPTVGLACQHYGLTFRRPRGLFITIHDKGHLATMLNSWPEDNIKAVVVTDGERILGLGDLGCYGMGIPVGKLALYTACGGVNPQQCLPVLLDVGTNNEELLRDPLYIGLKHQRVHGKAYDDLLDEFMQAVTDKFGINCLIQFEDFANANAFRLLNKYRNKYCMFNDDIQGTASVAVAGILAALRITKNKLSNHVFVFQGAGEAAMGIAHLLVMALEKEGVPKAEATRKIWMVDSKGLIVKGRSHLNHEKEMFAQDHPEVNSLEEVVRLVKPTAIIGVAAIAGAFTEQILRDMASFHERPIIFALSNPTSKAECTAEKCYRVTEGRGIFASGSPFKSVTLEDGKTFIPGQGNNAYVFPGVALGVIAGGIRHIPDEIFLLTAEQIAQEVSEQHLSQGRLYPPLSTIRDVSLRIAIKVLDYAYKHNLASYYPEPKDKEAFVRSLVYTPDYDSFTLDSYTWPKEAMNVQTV
Outline: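 Coupled read-out: NADPH made by human ME3 (20 nM stock) drives diaphorase conversion of resazurin (50 μM) to resorufin; buffer 50 mM Tris-HCl pH 7.5, 10 mM MnCl2, 3 mM L-malate.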

human ME1 enzyme = target: T2, human ME1 enzyme (Homo sapiens, UniProt P48163); assay: ME1 inhibition assay (diaphorase/resazurin coupled fluorescence); settings: 10 μM compound concentration; read-out: Malic Enzyme 1 % inhibition (10 μM)
T2 sequence (P48163 1-572): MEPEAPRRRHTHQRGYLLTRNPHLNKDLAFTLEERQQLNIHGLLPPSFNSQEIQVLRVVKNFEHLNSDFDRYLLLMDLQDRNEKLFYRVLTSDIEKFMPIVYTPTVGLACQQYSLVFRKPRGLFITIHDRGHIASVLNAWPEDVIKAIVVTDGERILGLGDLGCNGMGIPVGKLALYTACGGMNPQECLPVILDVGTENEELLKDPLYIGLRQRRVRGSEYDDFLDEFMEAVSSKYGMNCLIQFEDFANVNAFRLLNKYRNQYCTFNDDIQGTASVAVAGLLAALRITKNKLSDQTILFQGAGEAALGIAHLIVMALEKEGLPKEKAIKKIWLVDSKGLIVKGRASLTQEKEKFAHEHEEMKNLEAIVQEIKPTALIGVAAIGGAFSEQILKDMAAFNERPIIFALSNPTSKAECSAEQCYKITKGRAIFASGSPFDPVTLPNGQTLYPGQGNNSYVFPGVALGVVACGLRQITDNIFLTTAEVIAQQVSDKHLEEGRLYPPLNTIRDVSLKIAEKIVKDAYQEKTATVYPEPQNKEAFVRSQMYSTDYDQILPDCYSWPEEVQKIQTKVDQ
Outline: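 Compounds at 10 μM preincubated 15 min in 50 mM Tris-HCl pH 7.5, 10 mM MnCl2, 2 mM L-malate, 10 μM resazurin, 0.01 mg/ml diaphorase, then human ME1 added for 5 min; reaction started with NADP+ and run 2 h at room temperature. Resorufin fluorescence (ex 540/em 600 nm) normalized to enzyme-only (100%) and no-enzyme (0%) controls.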

Chain of human ME2 enzyme (P23368 19-584): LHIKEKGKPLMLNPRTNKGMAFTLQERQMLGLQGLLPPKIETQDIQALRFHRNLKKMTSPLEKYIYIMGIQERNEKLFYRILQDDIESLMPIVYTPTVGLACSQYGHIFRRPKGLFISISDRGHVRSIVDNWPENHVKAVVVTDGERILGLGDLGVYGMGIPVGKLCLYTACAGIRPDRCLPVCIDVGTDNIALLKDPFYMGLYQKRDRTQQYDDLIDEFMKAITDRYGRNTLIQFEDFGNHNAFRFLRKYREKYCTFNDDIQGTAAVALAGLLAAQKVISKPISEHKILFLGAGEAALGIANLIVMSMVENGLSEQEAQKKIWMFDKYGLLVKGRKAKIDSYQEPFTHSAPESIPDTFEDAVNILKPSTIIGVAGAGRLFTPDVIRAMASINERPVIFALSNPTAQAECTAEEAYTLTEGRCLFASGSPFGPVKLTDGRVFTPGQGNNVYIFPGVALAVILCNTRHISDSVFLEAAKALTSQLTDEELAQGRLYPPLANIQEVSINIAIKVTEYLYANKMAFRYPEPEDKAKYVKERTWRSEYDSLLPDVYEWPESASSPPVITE

In the case of `O=C(C=C(c1ccccc1)c1ccccc1)N1CCN(c2ccc(O)cn2)CC1` [I.74, 1-[4-(5-Hydroxy-2-pyridyl)-piperazin-1-yl]-3,3-diphenyl-prop-2-en-1-one], the inhibition at 10 µM (human ME2 enzyme) is reported as 70 to 89%, the inhibition at 10 µM (human ME3 enzyme) is reported as > 90% and the inhibition at 10 µM (human ME1 enzyme) is reported as > 90%.

`CC(C)(Sc1ccccc1Br)C(=O)N1CCN(c2ccc(O)cn2)CC1` [I.162, 2-(2-Bromo-phenyl-sulfanyl)-1-[4-(5-hydroxy-pyridin-2-yl)-piperazin-1-yl]-2-methyl-propan-1-one] was tested, and the inhibition at 10 µM (human ME2 enzyme) was > 90%, the inhibition at 10 µM (human ME3 enzyme) was > 90% and the inhibition at 10 µM (human ME1 enzyme) was > 90%.

In the case of `O=C(O)c1ccccc1CCC(=O)N1CCN(c2ccc(O)cn2)CC1` [I.141, 2-{3-[4-(5-Hydroxy-pyridin-2-yl)-piperazin-1-yl]-3-oxo-propyl}-benzoic acid], the inhibition at 10 µM (human ME2 enzyme) is reported as > 90%, the inhibition at 10 µM (human ME3 enzyme) is reported as > 90% and the inhibition at 10 µM (human ME1 enzyme) is reported as 70 to 89%.

In the case of `CC(CC(=O)N1CCN(c2ccc(O)cn2)CC1)c1ccccc1` (stereo not drawn) [I.115, 1-[4-(5-Hydroxy-pyridin-2-yl)-piperazin-1-yl]-3-phenyl-butan-1-one dihydro-chloride], the inhibition at 10 µM (human ME2 enzyme) is reported as > 90%, the inhibition at 10 µM (human ME3 enzyme) is reported as > 90% and the inhibition at 10 µM (human ME1 enzyme) is reported as > 90%.

`O=C(CCc1cccc2ccccc12)N1CCN(c2ccc(O)cc2)CC1` [I.46, 1-[4-(4-Hydroxy-phenyl)-piperazin-1-yl]-3-naphthalen-1-yl-propan-1-one] was tested, and the inhibition at 10 µM (human ME2 enzyme) was > 90%, the inhibition at 10 µM (human ME3 enzyme) was > 90% and the inhibition at 10 µM (human ME1 enzyme) was > 90%.

In the case of `Cc1[nH]c2cc(Cl)c(Cl)cc2c1CC(=O)N1CCN(c2ccc(O)cn2)CC1` [I.176, 2-(5,6-Dichloro-2-methyl-1H-indol-3-yl)-1-[4-(5-hydroxy-pyridin-2-yl)-piperazin-1-yl]-ethanone], the inhibition at 10 µM (human ME2 enzyme) is reported as > 90%, the inhibition at 10 µM (human ME3 enzyme) is reported as > 90% and the inhibition at 10 µM (human ME1 enzyme) is reported as > 90%.

`Cc1ccccc1CCC(=O)N1CCN(c2ccc(O)cn2)CC1` [I.107, 1-[4-(5-Hydroxy-pyridin-2-yl)-piperazin-1-yl]-3-o-tolyl-propan-1-one] was tested, and the inhibition at 10 µM (human ME2 enzyme) was > 90%, the inhibition at 10 µM (human ME3 enzyme) was > 90% and the inhibition at 10 µM (human ME1 enzyme) was > 90%.

`O=C(CC12CC3CC(CC(O)(C3)C1)C2)N1CCN(c2ccc(O)cn2)CC1` [I.56, 2-(3-Hydroxy-1-adamantyl)-1-[4-(5-hydroxy-2-pyridyl)-piperazin-1-yl]ethanone] was tested, and the inhibition at 10 µM (human ME2 enzyme) was 70 to 89%, the inhibition at 10 µM (human ME3 enzyme) was > 90% and the inhibition at 10 µM (human ME1 enzyme) was 50 to 69%.

In the case of `CN(CC(=O)N1CCN(c2ccc(O)cn2)CC1)CC12CC3CC(CC(C3)C1)C2` [I.96, 2-[1-Adamantyl-methyl-(methyl)-amino]-1-[4-(5-hydroxy-2-pyridyl)-piperazin-1-yl]ethanone], the inhibition at 10 µM (human ME2 enzyme) is reported as 70 to 89%, the inhibition at 10 µM (human ME3 enzyme) is reported as > 90% and the inhibition at 10 µM (human ME1 enzyme) is reported as 70 to 89%.

`O=C(CCc1cccs1)N1CCN(c2ccc(O)cn2)CC1` [I.116, 1-[4-(5-Hydroxy-pyridin-2-yl)-piperazin-1-yl]-3-thiophen-2-yl-propan-1-one] was tested, and the inhibition at 10 µM (human ME2 enzyme) was > 90%, the inhibition at 10 µM (human ME3 enzyme) was > 90% and the inhibition at 10 µM (human ME1 enzyme) was > 90%.

With `O=C(c1c2ccccc2nc2ccccc12)N1CCN(c2ccc(O)cc2)CC1` [I.9, Acridin-9-yl-[4-(4-hydroxy-phenyl)-piperazin-1-yl]-methanone] the inhibition at 10 µM (human ME2 enzyme) was > 90%, the inhibition at 10 µM (human ME3 enzyme) was > 90% and the inhibition at 10 µM (human ME1 enzyme) was > 90%.

For `O=C(CC1c2ccccc2-c2ccccc21)N1CCN(c2ccc(O)cn2)CC1` [I.61, 2-(9H-Fluoren-9-yl)-1-[4-(5-hydroxy-2-pyridyl)-piperazin-1-yl]ethanone], the inhibition at 10 µM (human ME2 enzyme) was 70 to 89%, the inhibition at 10 µM (human ME3 enzyme) was > 90% and the inhibition at 10 µM (human ME1 enzyme) was 70 to 89%.

With `O=C(COc1ccc(F)cc1)N1CCN(c2ccc(O)cn2)CC1` [I.164, 2-(4-Fluoro-phenoxy)-1-[4-(5-hydroxy-pyridin-2-yl)-piperazin-1-yl]-ethanone] the inhibition at 10 µM (human ME2 enzyme) was > 90%, the inhibition at 10 µM (human ME3 enzyme) was > 90% and the inhibition at 10 µM (human ME1 enzyme) was > 90%.

For `O=C(c1ccc(-c2ccccc2)s1)N1CCN(c2ccc(O)cn2)CC1` [I.123, [4-(5-Hydroxy-pyridin-2-yl)-piperazin-1-yl]-(5-phenyl-thiophen-2-yl)-methanone], the inhibition at 10 µM (human ME2 enzyme) was 70 to 89%, the inhibition at 10 µM (human ME3 enzyme) was > 90% and the inhibition at 10 µM (human ME1 enzyme) was 70 to 89%.

In the case of `O=C(CCc1ccc(C(F)(F)F)cc1)N1CCN(c2ccc(O)cn2)CC1` [I.139, 3-(4-Trifluoro-methylphenyl)-1-[4-(5-hydroxy-pyridin-2-yl)-piperazin-1-yl]-propan-1-one], the inhibition at 10 µM (human ME2 enzyme) is reported as > 90%, the inhibition at 10 µM (human ME3 enzyme) is reported as > 90% and the inhibition at 10 µM (human ME1 enzyme) is reported as > 90%.

In the case of `Cn1cc(C(=O)N2CCN(c3ccc(O)cn3)CC2)c2ccccc21` [I.71, [4-(5-Hydroxy-pyridin-2-yl)-piperazin-1-yl]-(1-methyl-1H-indol-3-yl)-methanone], the inhibition at 10 µM (human ME2 enzyme) is reported as 70 to 89%, the inhibition at 10 µM (human ME3 enzyme) is reported as > 90% and the inhibition at 10 µM (human ME1 enzyme) is reported as > 90%.

For `Cc1cccc(CCC(=O)N2CCN(c3ccc(O)cn3)CC2)c1C` [I.146, 3-(2,3-Dimethyl-phenyl)-1-[4-(5-hydroxy-pyridin-2-yl)-piperazin-1-yl]-propan-1-one], the inhibition at 10 µM (human ME2 enzyme) was > 90%, the inhibition at 10 µM (human ME3 enzyme) was > 90% and the inhibition at 10 µM (human ME1 enzyme) was > 90%.

For `O=C(O)CCCC(=O)N1CCN(c2ccc(O)cn2)CC1` [I.70, 5-[4-(5-hydroxy-2-pyridyl)piperazin-1-yl]-5-oxo-pentanoic acid], the inhibition at 10 µM (human ME2 enzyme) was 70 to 89%, the inhibition at 10 µM (human ME3 enzyme) was > 90% and the inhibition at 10 µM (human ME1 enzyme) was 70 to 89%.

With `O=C(CCc1ccc(F)cc1)N1CCN(c2ccc(O)cn2)CC1` [I.126, 3-(4-Fluoro-phenyl)-1-[4-(5-hydroxy-pyridin-2-yl)-piperazin-1-yl]-propan-1-one] the inhibition at 10 µM (human ME2 enzyme) was > 90%, the inhibition at 10 µM (human ME3 enzyme) was > 90% and the inhibition at 10 µM (human ME1 enzyme) was > 90%.

`O=C(C1CCCc2ccccc21)N1CCN(c2ccc(O)cn2)CC1` (stereo not drawn) [I.132, [4-(5-Hydroxy-pyridin-2-yl)-piperazin-1-yl]-(1,2,3,4-tetrahydro-naphthalen-1-yl)-methanone] was tested, and the inhibition at 10 µM (human ME2 enzyme) was > 90%, the inhibition at 10 µM (human ME3 enzyme) was > 90% and the inhibition at 10 µM (human ME1 enzyme) was 70 to 89%.

With `O=C(Cc1cc(F)c(F)c(F)c1)N1CCN(c2ccc(O)cc2)CC1` [I.171, 1-[4-(4-Hydroxy-phenyl)-piperazin-1-yl]-2-(3,4,5-trifluoro-phenyl)-ethanone] the inhibition at 10 µM (human ME2 enzyme) was > 90%, the inhibition at 10 µM (human ME3 enzyme) was > 90% and the inhibition at 10 µM (human ME1 enzyme) was > 90%.

For `O=C(CCc1cc(F)c(F)c(F)c1)N1CCN(c2ccc(O)cn2)CC1` [I.170, 1-[4-(5-Hydroxy-pyridin-2-yl)-piperazin-1-yl]-3-(3,4,5-trifluoro-phenyl)-propan-1-one], the inhibition at 10 µM (human ME2 enzyme) was > 90%, the inhibition at 10 µM (human ME3 enzyme) was > 90% and the inhibition at 10 µM (human ME1 enzyme) was > 90%.

`O=C(CC(c1ccccc1)c1ccccc1)N1CCN(c2ccc(O)cn2)CC1` [I.75, 1-[4-(5-Hydroxy-2-pyridyl)-piperazin-1-yl]-3,3-diphenyl-propan-1-one] was tested, and the inhibition at 10 µM (human ME2 enzyme) was 70 to 89%, the inhibition at 10 µM (human ME3 enzyme) was > 90% and the inhibition at 10 µM (human ME1 enzyme) was > 90%.

With `O=C(C=C(c1ccccc1)c1ccccc1)N1CCN(c2ccc(O)cc2)CC1` [I.40, 1-[4-(4-hydroxyphenyl)piperazin-1-yl]-3,3-diphenylprop-2-en-1-one] the inhibition at 10 µM (human ME2 enzyme) was > 90%, the inhibition at 10 µM (human ME3 enzyme) was > 90% and the inhibition at 10 µM (human ME1 enzyme) was > 90%.

For `O=C(CCn1ccc2ccccc21)N1CCN(c2ccc(O)cn2)CC1` [I.135, 1-[4-(5-Hydroxy-pyridin-2-yl)-piperazin-1-yl]-3-indol-1-yl-propan-1-one], the inhibition at 10 µM (human ME2 enzyme) was > 90%, the inhibition at 10 µM (human ME3 enzyme) was > 90% and the inhibition at 10 µM (human ME1 enzyme) was 70 to 89%.
